{"source": "paper PMC10761680", "about": "(Scientific Reports, 2024)", "key": {"[1]": {"molecular_target": "human soluble ENPP1", "conditions": "substrate p-Nph-5′-TMP, Colorimetry (p-nitrophenol), cited from earlier work; for Ki: pH 9.0; for IC50: read-out: IC50 (shown in the Ki column)"}, "[2]": {"molecular_target": "human soluble ENPP1", "set-up": "method as in earlier work", "conditions": "substrate ATP, Colorimetry (Molybdenum-phosphate complex), pH 9.0; cited from earlier work"}, "[3]": {"molecular_target": "human soluble ENPP1", "conditions": "substrate ATP, Capillary Electrophoresis, pH 9.0; cited from earlier work"}, "[4]": {"molecular_target": "human soluble ENPP1", "conditions": "substrate cGAMP, Bioluminescence (Enzyme-coupling), cited from earlier work"}, "[5]": {"molecular_target": "T1, human ENPP1 (Homo sapiens, UniProt P22413)", "T1 sequence (P22413 98-925 limits assumed)": "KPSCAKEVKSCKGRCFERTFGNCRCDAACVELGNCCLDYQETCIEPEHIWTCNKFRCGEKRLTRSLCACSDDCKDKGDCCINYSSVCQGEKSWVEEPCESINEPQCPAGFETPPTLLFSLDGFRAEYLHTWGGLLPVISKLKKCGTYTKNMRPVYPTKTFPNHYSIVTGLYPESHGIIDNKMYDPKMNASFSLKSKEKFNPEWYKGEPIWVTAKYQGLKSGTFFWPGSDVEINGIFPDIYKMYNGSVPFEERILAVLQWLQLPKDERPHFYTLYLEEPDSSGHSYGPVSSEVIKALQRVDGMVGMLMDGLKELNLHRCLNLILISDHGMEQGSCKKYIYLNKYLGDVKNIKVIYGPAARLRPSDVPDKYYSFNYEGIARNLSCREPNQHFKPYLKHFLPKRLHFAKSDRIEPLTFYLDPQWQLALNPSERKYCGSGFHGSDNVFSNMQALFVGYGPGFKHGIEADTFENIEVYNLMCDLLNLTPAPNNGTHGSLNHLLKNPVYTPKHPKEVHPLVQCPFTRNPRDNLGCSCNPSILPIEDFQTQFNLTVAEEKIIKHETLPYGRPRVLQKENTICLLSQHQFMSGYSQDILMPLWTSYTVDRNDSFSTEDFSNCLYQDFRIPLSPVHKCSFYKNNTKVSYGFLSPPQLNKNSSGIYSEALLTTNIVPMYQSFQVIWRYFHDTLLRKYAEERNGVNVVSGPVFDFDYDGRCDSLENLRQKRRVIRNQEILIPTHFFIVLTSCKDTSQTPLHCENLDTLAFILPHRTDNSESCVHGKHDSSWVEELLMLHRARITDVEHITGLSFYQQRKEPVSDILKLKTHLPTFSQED", "assay": "Fluorescent screening of ENPP1 inhibitors using ATP as substrate and Kyoto Green as reporter", "assay_type": "biochemical", "set-up": "purchased R&D systems (Minneapolis, USA)", "conditions": "2 μM ATP, 11.5 nM ENPP1, 20 min, pH 7.4; for ENPP1 inhibition in Kyoto Green screening (in words): 10 μM or maximum soluble concentration"}, "[6]": {"assay": "pH-dependent stability of quercetin in aqueous solution (UV-visible spectrum)", "assay_type": "physicochemical", "conditions": "50 mM HEPES buffer (pH 7.4), 60 min, 7 µM", "experimental": "page 8: 0 → 60 min 0 → 60 min Figure S7.pH -dependent stability of quercetin in aqueous solution. Time course of UV- visible spectrum (JASCO […], Japan) of quercetin ( 7 μ M) in50 m M HEPES buffer (pH 7.4) (above) or 50 mM borate buffer (pH 9.0) (below) . Inset: Absorbance at λ ma x ( 403 nm). Ratio of ethanol : buffer = 1 : 10 v/v. The buffer contain ed 10 mM NaCl, 1 mM MgCl 2, and 0.02 mM Zn(NO3)2. Measurements were performed at 25± 2 °C. S8 […]"}, "[7]": {"molecular_target": "T1, human ENPP1", "assay": "Bioluminescent assay of ENPP1 using luciferin/luciferase ATP assay kit"}, "[8]": {"molecular_target": "T1, human ENPP1", "assay": "Fluorescent determination of IC50/Ki using Kyoto Green (ATP hydrolysis)"}, "[9]": {"molecular_target": "T1, human ENPP1", "assay": "Colorimetric UV-visible assay of ENPP1 using p-Nph-5′-TMP as chromogenic substrate", "assay_type": "biochemical", "set-up": "purchased R&D systems (Minneapolis, USA)"}, "[10]": {"assay": "Solubility in water (solution preparation)", "assay_type": "physicochemical"}, "[11]": {"molecular_target": "T1, human ENPP1", "assay": "biochemical"}, "[12]": {"molecular_target": "T1, human ENPP1", "set-up": "purchased R&D systems (Minneapolis, USA); method as in PMID 28011303", "conditions": "substrate of human ENPP1, pH 9.0; cited from earlier work"}, "[13]": {"conditions": "Kyoto Green fluorescence method, ATP, pH 7.4"}}, "note": "Like-named read-outs stand apart in the source and are kept apart here."}
{"smiles": "Cc1nc2ncnn2c(N(C)C)c1Cc1cccc(N)c1", "note": "[Compound 1]", "values": [{"measurement": "Ki", "setting": "[1]", "value": 480, "unit": "nM"}, {"measurement": "Ki", "setting": "[2]", "value": 2000, "unit": "nM"}]}
{"smiles": "COc1ccc(NC(=O)CSc2nc3c(N)ncnc3[nH]2)cc1OC", "note": "[Compound 3]", "values": [{"measurement": "Ki", "setting": "[3]", "value": 18000, "unit": "nM"}, {"measurement": "Ki", "setting": "[1]", "value": 5, "unit": "nM"}]}
{"smiles": "COc1cccc2c(NCc3ccc(P(=O)(O)O)cc3)c(C#N)cnc12", "note": "[Compound 5]", "values": [{"measurement": "Ki", "setting": "[4]; pH 7.4", "value": "< 2", "unit": "nM"}]}
{"smiles": "CN1Cc2c(ncnc2N2CCC(C)(CNS(N)(=O)=O)CC2)NC1=O", "note": "[Compound 6]", "values": [{"measurement": "IC50", "setting": "[4]; pH 8.5, read-out: IC50 (shown in the Ki column)", "value": 3.7, "unit": "nM"}]}
{"smiles": "O=c1c(O)c(-c2ccc(O)cc2)oc2cc(O)cc(O)c12", "note": "[Kaempferol, 3, 4′,5,7 -tetrahydroxyflavone]", "values": [{"measurement": "ENPP1 inhibition in Kyoto Green screening (in words)", "setting": "[5]", "value": "ineffective as inhibitors"}]}
{"smiles": "O=c1c(O)c(-c2ccc(O)cc2O)oc2cc(O)cc(O)c12", "note": "[Morin, 3,5,7,2′,4′-pentahydroxyflavone]", "values": [{"measurement": "ENPP1 inhibition in Kyoto Green screening (in words)", "setting": "[5]", "value": "ineffective as inhibitors"}]}
{"smiles": "O=c1c(O)c(-c2cc(O)c(O)c(O)c2)oc2cc(O)cc(O)c12", "note": "[Myricetin, 3,5,7,3′,4′,5′-hexahydroxyflavone]", "values": [{"measurement": "IC50", "setting": "[1]; pH 7.4", "value": 432, "unit": "nM"}, {"measurement": "IC50", "setting": "[1]; pH 9.5", "value": 414, "unit": "nM"}]}
{"smiles": "O=c1c(O)c(-c2ccc(O)c(O)c2)oc2cc(O)cc(O)c12", "note": "[Quercetin, 3,5,7,3′,4′-pentahydroxyflavone]", "values": [{"measurement": "reduction of Kyoto Green fluorescence change (F/F0-1) compared to the control group without an inhibitor", "setting": "[5]; 10 μM compound", "value": "over 90%"}, {"measurement": "stability in buffer", "setting": "[6]", "value": "highly stable"}, {"measurement": "IC50", "setting": "[7]", "value": "5.5 ± 0.6", "unit": "nM"}, {"measurement": "IC50", "setting": "[8]", "value": "4.5 ± 0.9", "unit": "nM"}, {"measurement": "inhibitory efficiency of quercetin relative to myricetin", "setting": "[8]; [13]", "value": "~ 8 folds"}, {"measurement": "inhibitory efficiency of quercetin relative to suramin", "setting": "[8]; [13]", "value": "~ 188 folds"}, {"measurement": "ENPP1 inhibition at pH 9.0 (in words)", "setting": "[9]; 700 nM quercetin, 0.1 mM p-Nph-5′-TMP, 50 mM borate buffer pH 9.0, 6.5 nM ENPP1, time course 60 min", "value": "capable of inhibiting ENPP1 at pH 9.0, but this effect was observed only for the first 10 min"}, {"measurement": "Ki by colorimetric method relative to Ki by Kyoto Green and commercial ATP assays", "setting": "[9]; p-Nph-5′-TMP versus ATP as substrate", "value": "approximately 40 fold"}, {"measurement": "Ki", "setting": "[9]; substrate p-Nph-5′-TMP, Colorimetry (p-nitrophenol), pH 7.4, Cheng-Prusoff, KM 222 µM", "value": "159 ± 73", "unit": "nM"}, {"measurement": "solubility in water", "setting": "[10]", "value": "poor solubility in water"}, {"measurement": "Ki", "setting": "[11]", "value": "~4", "unit": "nM"}]}
{"smiles": "O=c1c(O[C@@H]2O[C@H](CO)[C@@H](O)[C@H](O)[C@H]2O)c(-c2ccc(O)c(O)c2)oc2cc(O)cc(O)c12", "note": "[Quercetin-3-glucoside, quercetin-3-glucoside]", "values": [{"measurement": "ENPP1 inhibition in Kyoto Green screening (in words)", "setting": "[5]", "value": "did not inhibit ENPP1"}, {"measurement": "ENPP1 inhibition in Kyoto Green screening (in words)", "setting": "[5]; listed as quercetin glucoside", "value": "ineffective as inhibitors"}]}
{"smiles": "Cc1cn([C@H]2C[C@H](O)[C@@H](COP(=O)(O)Oc3ccc([N+](=O)[O-])cc3)O2)c(=O)[nH]c1=O", "note": "[p-Nph-5′-TMP, p-nitrophenyl 5′-thymidine monophosphate]", "values": [{"measurement": "Km", "setting": "[12]", "value": 222, "unit": "µM"}]}
